Measured values published in patent US20250152608A1, “CONTRACEPTIVE METHODS WITH IMPROVED PEARL INDEX” (ESTETRA SRL, priority 2022, published 2025).

Assay: Solubility description
Type: physicochemical

Solubility (acetone)	Solubility (ethyl acetate and acetonitrile)	Solubility (methanol, ethanol)	Solubility (water and aqueous solutions)	Solubility (water)	Compound
sparingly soluble	slightly soluble	soluble	poorly soluble	–	C[C@]12CC[C@@H]3c4ccc(O)cc4CC[C@H]3[C@@H]1[C@@H](O)[C@@H](O)C2O (stereo in doubt) [Estetrol monohydrate, estra-1,3,5(10)-triene-3,15α,16α,17α-tetrol monohydrate]
–	–	–	–	slight solubility	C[C@]12CCC(=O)C=C1[C@@H]1C[C@@H]1[C@H]1[C@@H]3[C@@H]4C[C@@H]4[C@@]4(CCC(=O)O4)[C@@]3(C)CC[C@@H]12 [Drospirenone]
